In patent US12605360B2, “Compositions and methods using xanthan gum to stabilize at least one urolithin in an aqueous matrix” (SOCIETE DES PRODUITS NESTLE S.A., priority 2020, dated 2026):

What was measured:
[1] = Solubility of Urolithin A; type: physicochemical
Text: The present disclosure addresses the inventors' recognition that Urolithin A (UA) is insoluble in water, such that a powder containing UA as the main functional ingredient presented the challenge of keeping UA in suspension upon reconstitution of the powder with water. In this regard, UA being insoluble promotes settling of UA at the bottom of the reconstitution container almost immediately. The present disclosure includes various ways of stabilizing Urolithin A in an aqueous matrix, such that when a powder containing UA is reconstituted, the UA remains in suspension.
Comparative experimental data was generated to investigate the possibility of stabilization of UA in an aqueous matrix.

[2] = Suspension of Urolithin A upon reconstitution of powder in water; type: physicochemical
Protocol: • 1. Initially the base selected was brown rice syrup powder to which UA was added. […] UA forms a suspension in oil, so another experiment used brown rice syrup powder with canola oil powder and whey protein.
Specifically, different gums and concentrations of gums were investigated with UA and a filler that was brown rice syrup powder: • 1. Guar gum • 2. PHGG • 3. Combination of guar and xanthan • 4. Acacia gum • 5. Gellan gum • 6. FMC Gum blend • 7. Xanthan gum
Table 1 (below) sets forth the formulations of the samples testing various gums with UA. FIGS. 3A and 3B set forth the results from these samples.
Some embodiments of the compositions disclosed herein include fruit flavor and thus citric acid. […] Table 2 (below) sets forth the formulations of the samples testing various gums with UA and citric acid. FIGS. 4A and 4B sets forth the results from these samples.
For each sample, after mixing the powder with water, five minutes elapsed, then the suspension was mixed again, and then viscosity was measured. Out of the various experiments, xanthan gum provided the best solution of not only keeping UA in suspension but also the desired viscosity, easily dissolved, and no off taste/odor to the product.
A range of xanthan gum amounts were then studied (Table 3 and FIG. 5). […]

**Q.** Which results are given for `O=c1oc2cc(O)ccc2c2ccc(O)cc12` [Urolithin A]?
**A.** solubility in oil ([1]; oil): sparingly soluble; solubility in water ([1]; water): insoluble; suspension of UA in an oil matrix [2]: forms a good suspension
